Experimental data taken from ChEMBL document CHEMBL1134943, “Synthesis and biological activity of retinoic acid receptor-alpha specific amides” (Bioorg Med Chem Lett, 2002).
Positions count from the first letter of the chain named. Active and inactive are the calls of the source. The calls are words filed in the database; no cut-off is given here.

What was measured:
[1] = molecular target: T1, Retinoic acid receptor gamma (Homo sapiens) (UniProt P13631); assay: Percent transcriptional activation of RAR gamma compared to 1 µM ATRA
T1 sequence (whole entry): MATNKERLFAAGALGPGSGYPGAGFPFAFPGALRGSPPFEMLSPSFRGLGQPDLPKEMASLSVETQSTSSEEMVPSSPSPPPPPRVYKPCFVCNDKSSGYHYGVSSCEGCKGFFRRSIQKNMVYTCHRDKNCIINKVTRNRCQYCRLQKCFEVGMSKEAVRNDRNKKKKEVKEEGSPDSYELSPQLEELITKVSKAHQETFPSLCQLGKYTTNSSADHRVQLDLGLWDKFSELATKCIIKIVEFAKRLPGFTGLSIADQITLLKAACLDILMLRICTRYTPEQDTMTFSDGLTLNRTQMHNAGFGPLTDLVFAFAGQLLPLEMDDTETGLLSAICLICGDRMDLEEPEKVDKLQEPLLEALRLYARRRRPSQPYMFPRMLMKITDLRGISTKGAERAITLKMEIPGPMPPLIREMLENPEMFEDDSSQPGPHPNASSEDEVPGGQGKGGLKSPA

[2] = molecular target: T2, Retinoic acid receptor alpha (Mus musculus) (UniProt P11416); assay: Topical irritation induced by RAR alpha-selective retinoid Am-580 in mice; format: functional
T2 sequence (whole entry): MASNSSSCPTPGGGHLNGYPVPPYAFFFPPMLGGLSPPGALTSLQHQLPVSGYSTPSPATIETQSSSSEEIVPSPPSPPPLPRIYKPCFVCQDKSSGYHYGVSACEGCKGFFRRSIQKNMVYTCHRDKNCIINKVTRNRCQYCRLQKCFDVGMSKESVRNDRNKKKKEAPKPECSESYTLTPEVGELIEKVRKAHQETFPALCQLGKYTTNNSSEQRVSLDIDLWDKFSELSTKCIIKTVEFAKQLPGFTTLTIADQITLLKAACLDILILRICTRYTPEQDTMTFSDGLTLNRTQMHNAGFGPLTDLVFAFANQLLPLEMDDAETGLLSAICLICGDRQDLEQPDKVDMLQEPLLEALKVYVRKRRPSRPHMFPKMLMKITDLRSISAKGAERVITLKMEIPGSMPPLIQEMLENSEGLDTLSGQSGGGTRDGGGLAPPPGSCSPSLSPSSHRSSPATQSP

[3] = molecular target: T3, Retinoic acid receptor beta (Homo sapiens) (UniProt P10826); assay: Percent transcriptional activation of RAR beta compared to […]; format: functional
T3 sequence (whole entry): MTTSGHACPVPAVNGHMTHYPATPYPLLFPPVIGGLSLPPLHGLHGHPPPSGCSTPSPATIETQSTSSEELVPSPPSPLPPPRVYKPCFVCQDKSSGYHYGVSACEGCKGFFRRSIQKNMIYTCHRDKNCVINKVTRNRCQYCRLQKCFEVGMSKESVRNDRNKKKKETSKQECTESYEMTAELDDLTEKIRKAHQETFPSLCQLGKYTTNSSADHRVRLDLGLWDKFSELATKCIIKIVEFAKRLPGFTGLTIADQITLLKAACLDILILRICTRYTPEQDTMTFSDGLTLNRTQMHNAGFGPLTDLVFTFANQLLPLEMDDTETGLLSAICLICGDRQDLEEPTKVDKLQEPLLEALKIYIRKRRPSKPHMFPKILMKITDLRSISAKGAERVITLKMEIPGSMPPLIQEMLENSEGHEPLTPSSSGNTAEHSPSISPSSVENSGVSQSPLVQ

[4] = molecular target: T4, Retinoic acid receptor alpha (Homo sapiens, UniProt P10276); assay: Effective concentration for retinoic acid receptor RAR alpha transcriptional activation; format: functional
T4 sequence (P10276 whole entry): T2 sequence (whole entry) with S43T, D150E, A169V, K347R, S427P, T431G, H453N, Q460H

[5] = molecular target: T4, Retinoic acid receptor alpha; assay: Binding affinity fo retinoic acid receptor RAR alpha
[6] = molecular target: T5, Retinoic acid receptor gamma (Homo sapiens, UniProt P13631); assay: Binding affinity for retinoic acid receptor RAR gamma
T5 sequence (P13631 whole entry): T1 sequence (whole entry)

[7] = molecular target: T1, Retinoic acid receptor gamma (Homo sapiens); conditions: 1 mM
[8] = molecular target: T3, Retinoic acid receptor beta (Homo sapiens); assay: Percent transcriptional activation of RAR beta compared to […]; NA indicates […]; format: functional
[9] = molecular target: T6, Retinoic acid receptor beta (Homo sapiens, UniProt P10826); assay: Binding affinity for retinoic acid receptor RAR beta
T6 sequence (P10826 whole entry): T3 sequence (whole entry)

[10] = molecular target: T6, Retinoic acid receptor beta; assay: Effective concentration for retinoic acid receptor RAR beta transcriptional activation; format: functional
[11] = molecular target: T5, Retinoic acid receptor gamma; assay: Effective concentration for retinoic acid receptor RAR gamma transcriptional activation; format: functional
[12] = tested on: T47D; assay: Percent inhibition of BrdU incorporation into T-47D cells; format: functional, Homo sapiens
[13] = tested on: T47D; assay: Inhibition of ER positive human breast cancer cell T-47D proliferation; format: functional, cell-based
[14] = tested on: SK-BR-3; assay: Inhibition of ER-negative human breast cancer cell SK-BR-3 proliferation; format: functional, cell-based
[15] = tested on: SK-BR-3; assay: Percent inhibition of BrdU incorporation into SK-BR-3 cells; format: functional, Homo sapiens
[16] = molecular target: T7, Retinoic acid receptor alpha (Homo sapiens) (UniProt P10276); assay: Percent transcriptional activation of RAR alpha compared to […]; format: functional
T7 sequence (whole entry): T2 sequence (whole entry) with S43T, D150E, A169V, K347R, S427P, T431G, H453N, Q460H

| Structure (SMILES) | Efficacy [1] [%] | Topical irritation score(0-21) [2] | Efficacy [3] [%] | EC50 [4] [nM] | Kd [5] [nM] | Kd [6] [nM] | Efficacy [7] | Efficacy [8] | Kd [9] [nM] | EC50 [10] [nM] | EC50 [11] [nM] | Efficacy [12] [%] | IC50 [13] [nM] | IC50 [14] [nM] | Efficacy [15] [%] | Efficacy [16] [%] |
| --- | --- | --- | --- | --- | --- | --- | --- | --- | --- | --- | --- | --- | --- | --- | --- | --- |
| CC1(C)CCC(C)(C)c2cc(C(=O)Nc3ccc(C(=O)O)cc3)ccc21 | 80 | 16 | 105 | – | – | – | – | – | – | – | – | – | – | – | – | – |
| CC1(C)CCC(C)(C)c2c1cc(C(=O)Nc1cc(F)c(C(=O)O)c(F)c1)c(O)c2Br | – | – | – | 290 | 4 | > 100000 | inactive | inactive | 6400 | – | – | – | – | – | – | – |
| CC1(C)CCC(C)(C)c2cc(C(=O)Nc3cc(F)c(C(=O)O)c(F)c3)c(O)cc21 | 10 | – | 10 | 112 | 3 | 5600 | – | – | > 100000 | > 1000 | > 1000 | – | – | – | – | – |
| CC1=C(/C=C/C(C)=C/C=C/C(C)=C/C(=O)O)C(C)(C)CCC1 [TRETINOIN] | – | – | – | – | – | – | – | – | – | – | – | 74 | 200 | 1.7 | 99 | – |
| CC1(C)CCC(C)(C)c2c1cc(C(=O)Nc1cc(F)c(C(=O)O)c(F)c1)c(O)c2Cl [NRX195183] | – | 0 | – | 200 | 3 | > 100000 | inactive | inactive | > 100000 | – | – | 57 | 1.4 | 11 | 93 | 80 |
| CC1(C)CCC(C)(C)c2cc(C(=O)Nc3ccc(C(=O)O)c(F)c3)ccc21 | 85 | – | 78 | 8 | 2 | 990 | – | – | 380 | 45 | 350 | – | – | – | – | – |
| CC1(C)CCC(C)(C)c2cc(C(=O)Nc3cc(F)c(C(=O)O)c(F)c3)ccc21 | – | – | 25 | 94 | 7 | 5600 | inactive | – | 1470 | > 1000 | – | – | – | – | – | – |
